Assay results as given in PubChem BioAssay (NCI).
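Following 48 hours of exposure in 96-well plates, responses at five concentrations were used to interpolate endpoints linearly. GI50 is the concentration that inhibits growth by half. The concentration for full growth arrest is given as TGI.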

Key:
Assay in all cases: NCI tumour cell line growth inhibition, 48 h
ACHN renal = test system: ACHN renal
HL-60(TB) leukemia = test system: HL-60(TB) leukemia
IGROV1 ovarian = test system: IGROV1 ovarian
M14 melanoma = test system: M14 melanoma
NCI-H522 lung = test system: NCI-H522 lung
OVCAR-5 ovarian = test system: OVCAR-5 ovarian
OVCAR-8 ovarian = test system: OVCAR-8 ovarian
SW-620 colon = test system: SW-620 colon
U251 CNS = test system: U251 CNS
UO-31 renal = test system: UO-31 renal

Structure (SMILES) | GI50 (ACHN renal) [µM] | TGI (ACHN renal) [µM] | GI50 (HL-60(TB) leukemia) [µM] | TGI (HL-60(TB) leukemia) [µM] | GI50 (IGROV1 ovarian) [µM] | TGI (IGROV1 ovarian) [µM] | GI50 (M14 melanoma) [µM] | TGI (M14 melanoma) [µM] | GI50 (NCI-H522 lung) [µM] | TGI (NCI-H522 lung) [µM] | GI50 (OVCAR-5 ovarian) [µM] | TGI (OVCAR-5 ovarian) [µM] | GI50 (OVCAR-8 ovarian) [µM] | TGI (OVCAR-8 ovarian) [µM] | GI50 (SW-620 colon) [µM] | TGI (SW-620 colon) [µM] | GI50 (U251 CNS) [µM] | TGI (U251 CNS) [µM] | GI50 (UO-31 renal) [µM] | TGI (UO-31 renal) [µM]
Clc1ccccc1-c1nnc2c(Cc3ccccc3)nc3ccccc3n12 | 39.4 | > 100 | 32.5 | > 100 | 44 | > 100 | > 60.5 | > 100 | 29.1 | > 100 | > 100 | > 100 | 7.21 | > 100 | 20.7 | > 100 | 4.21 | > 100 | > 50 | > 100
CCN(CC)CCCC(C)N/C(=C1\C(=O)NC(=O)\C1=C(/NC(C)CCCN(CC)CC)c1cccc(OC)c1)c1cccc(OC)c1 (stereo not given) | 0.393 | 2.16 | 0.968 | 2.49 | 0.844 | 2.35 | 0.932 | 1.75 | 0.755 | 1.69 | 1.16 | 3.42 | 0.515 | 3.09 | 0.512 | 3.65 | 0.844 | 1.89 | 0.733 | 1.49
COC(=O)c1oc2c(C(=O)/C=C/c3ccc(OC)cc3)c(OCCN(C)C)ccc2c1C | 5.9 | 19.5 | 1.88 | 6.01 | 5.99 | 21.4 | 10.6 | 25.5 | 5.39 | 20.2 | 15.8 | 32.9 | 4.96 | 21.5 | 2.4 | 7.43 | 5.72 | 19.3 | 5.14 | 18.2
CCNC(=O)Oc1ccc(/C(=C(/C)Cc2ccc(OC)cc2)c2ccc(OCCN(CC)CC)cc2)cc1 | 1.69 | 3.18 | 1.94 | 4.56 | 2.59 | 6.87 | 1.72 | 3.62 | 2.16 | 4.17 | 3.42 | 12.8 | 1.8 | 3.59 | 1.81 | 3.46 | 1.73 | 3.2 | 1.52 | 3.02
Cc1cc(C)c(-c2noc(-c3ccc(Cl)cc3)c2C2=NCCCN2)c(C)c1 |  | > 100 |  | 48.7 |  | > 100 |  | 6.11 |  | 71.3 |  | 86 |  | > 100 |  | > 100 |  | 25.8 |  | > 100
CCN(Cc1cccc(Cl)c1)c1ccc(CO)c(Cl)c1 | 11.9 | 25.1 | 3.93 | 20.9 | 0.111 | 1.62 | 12.6 | 28.6 | 12.8 | 27.1 | 0.222 | 1.25 | 10.5 | 23.3 | 1.56 | 18.1 | 1.09 | 14.6 | 3.55 | 17.6
CCCCCCCCCCCCOC1C(CNC(=O)C2OC3OC(C)(C)OC3C2NC(=O)CN2CCN(c3ccc(OC)cc3)CC2)OC2OC(C)(C)OC21 (stereo not given) | 3.59 | 11.2 | 2.13 | 4.44 | 4.24 | 16.4 | 4.73 | 18.9 | 4.92 | 17.4 | 2.52 | 7.5 | 3.91 | 12.9 | 3.75 | 28.3 | 4.74 | 15.8 | 3.36 | 13.4
Cc1nc2c(o1)C(=Nc1ccccc1)c1nc(C)oc1C2=Nc1ccccc1 |  | 33.6 |  | > 100 |  | 52.1 |  | > 100 |  | 42.7 |  | 92.4 |  | 34.3 |  | > 100 |  | 33.1 |  | 35.1
CC(=O)N1N=C(c2ccc(Nc3nc(Nc4ccc(F)cc4)nc(Nc4ccc(F)cc4)n3)cc2)CC1c1ccc(N(C)C)cc1 (stereo not given) | 6.15 | 18.7 | 2 | 6.12 | 7.09 | 30.6 | 2.79 | 9.79 | 4.81 | 30 | 29.5 | > 100 | 2.72 | 10.1 | 3.8 | 18.8 | 12.6 | 25.2 | 5.94 | 35.8
Nc1ccccc1C(=O)CCC1C(=O)NC(=S)NC1=O |  | > 100 |  | > 100 |  | > 100 |  | > 100 |  | > 100 |  | > 100 |  | > 100 |  | > 100 |  | > 100 |  | > 100
COc1cccc(Nc2nc3ccccc3c3occc23)c1 | 10.8 | 33.6 | 45 | > 100 | 4.95 | 25.9 | 13.9 | 28.6 | 9.3 | 27 | 14.1 | 32.9 | 15.8 | 42.7 | 16.7 | 34.3 | 9.68 | 27.1 | 6.98 | 27.6
Clc1cccc(-c2nnc(-c3nn(-c4ccccc4)c4nc5ccccc5nc34)o2)c1 |  | > 100 |  | > 100 |  | > 100 |  | > 100 |  | > 100 |  | > 100 |  | > 100 |  | > 100 |  | > 100 |  | > 100
Cc1cc(Nc2cc(N3CCN(C)CC3)nc(/C=C/c3ccccc3)n2)n[nH]1 | 0.205 | 3.92 | 0.32 | 2.57 | 0.0542 | 1.62 | 0.343 | > 3.81 | 0.336 | > 2.19 | 0.866 | > 9.04 | 1.68 | > 10 | 0.294 | > 10 | 0.883 | > 6.76 | 0.263 | 2.7
CC1=CC(C)(C)NN1C1=NS(=O)(=O)c2ccccc2N1C |  | > 100 |  | > 100 |  | > 100 |  | > 100 |  | > 100 |  | > 100 |  | > 100 |  | > 100 |  | > 100 |  | > 100
